SMILES strings stand for the structures.

One series deals with T1, Cytochrome P450 1A2 (Homo sapiens, UniProt P05177).
T1 sequence (P05177 whole entry): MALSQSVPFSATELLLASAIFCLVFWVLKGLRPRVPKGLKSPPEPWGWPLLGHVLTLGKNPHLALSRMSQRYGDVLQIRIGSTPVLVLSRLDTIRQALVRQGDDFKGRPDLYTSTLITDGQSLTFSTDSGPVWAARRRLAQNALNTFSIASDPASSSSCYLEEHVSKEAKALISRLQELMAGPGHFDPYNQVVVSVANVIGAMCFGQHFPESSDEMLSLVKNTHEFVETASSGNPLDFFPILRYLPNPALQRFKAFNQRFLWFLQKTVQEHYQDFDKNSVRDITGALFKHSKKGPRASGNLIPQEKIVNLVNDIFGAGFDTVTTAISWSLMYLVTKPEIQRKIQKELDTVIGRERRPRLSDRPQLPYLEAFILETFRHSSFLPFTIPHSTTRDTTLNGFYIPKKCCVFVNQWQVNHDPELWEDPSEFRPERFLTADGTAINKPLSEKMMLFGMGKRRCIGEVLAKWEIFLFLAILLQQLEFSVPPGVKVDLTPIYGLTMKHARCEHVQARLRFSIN
In words: Inhibition of human CYP1A2. In kind it is ADME.

Series [1] addresses T2, Muscarinic acetylcholine receptor M2 (Homo sapiens, UniProt P08172).
T2 sequence (P08172 whole entry): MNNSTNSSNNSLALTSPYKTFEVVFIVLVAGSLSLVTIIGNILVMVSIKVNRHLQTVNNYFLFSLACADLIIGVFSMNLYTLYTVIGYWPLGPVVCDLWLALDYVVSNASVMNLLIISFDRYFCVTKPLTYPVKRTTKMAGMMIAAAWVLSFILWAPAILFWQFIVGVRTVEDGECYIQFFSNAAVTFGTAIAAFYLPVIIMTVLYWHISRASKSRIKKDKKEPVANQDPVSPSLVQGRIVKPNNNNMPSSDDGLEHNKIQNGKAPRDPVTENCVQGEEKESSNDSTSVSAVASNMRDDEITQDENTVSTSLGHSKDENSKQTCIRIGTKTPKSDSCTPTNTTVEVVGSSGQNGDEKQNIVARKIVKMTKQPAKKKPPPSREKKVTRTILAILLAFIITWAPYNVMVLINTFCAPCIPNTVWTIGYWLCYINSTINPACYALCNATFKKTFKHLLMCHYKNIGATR
In words: Inhibition of human muscarinic M2 receptor by cell based functional assay.

The target in another series is Cytochrome P450 3A4 (Homo sapiens, UniProt P08684). In words: Inhibition of human CYP3A4. Format: ADME.
Sequence of Cytochrome P450 3A4 (P08684 whole entry): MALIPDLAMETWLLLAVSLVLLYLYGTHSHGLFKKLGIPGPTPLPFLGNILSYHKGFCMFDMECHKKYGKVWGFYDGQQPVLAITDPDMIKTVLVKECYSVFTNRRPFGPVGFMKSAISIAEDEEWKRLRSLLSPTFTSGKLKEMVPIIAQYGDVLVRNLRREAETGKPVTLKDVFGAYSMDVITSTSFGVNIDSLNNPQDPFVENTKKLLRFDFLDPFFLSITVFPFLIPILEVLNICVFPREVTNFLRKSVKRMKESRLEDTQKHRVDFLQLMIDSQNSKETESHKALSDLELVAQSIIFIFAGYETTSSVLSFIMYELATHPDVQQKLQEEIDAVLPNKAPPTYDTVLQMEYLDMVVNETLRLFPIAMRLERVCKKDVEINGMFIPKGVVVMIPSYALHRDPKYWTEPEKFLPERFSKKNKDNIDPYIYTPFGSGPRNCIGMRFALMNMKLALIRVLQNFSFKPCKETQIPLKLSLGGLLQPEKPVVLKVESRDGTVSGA
A short description of series [2]: Half life in rat at 10 mg/kg, po. In kind it is ADME, organism-based. Details: dose 10 mg/kg, route oral; call rule not given here. The following applies: in vivo.

As for `CNCCN1CCCc2cc(NC(=N)c3cccs3)ccc21`, the “inhibition (INH)” value at Cytochrome P450 1A2 and at Cytochrome P450 3A4 was “Not Active” each time. For the same molecule, the EC50 (as a rule, the concentration that produces a half-maximal response) in series [1] was > 40 µM. For the same molecule, the half-life – broadly, how long it takes for the measured level to halve – in series [2] was 8.1 h.

These data come from ChEMBL document CHEMBL2163286, “1,2,3,4-tetrahydroquinoline-based selective human neuronal nitric oxide synthase (nNOS) inhibitors: lead optimization studies resulting in the identification of N-(1-(2-(methylamino)ethyl)-1,2,3,4-tetrahydroquinolin-6-yl)thiophene-2-carboximidamide as a preclinical development candidate” (J Med Chem, 2012).
